pIC50: −log10 of the molar value. Like-named read-outs stand apart in the source and are kept apart here.
Experiments:
[1] = tested on: mechanical hyperalgesia associated with STZ-induced diabetes; assay: STZ-induced diabetes mechanical hyperalgesia (neuropathic pain); type: in vivo, rat; settings: for ED50: Rattus norvegicus, ip, read-out: ED50 0.5 hrs; for ED100 0.5 hrs: i.p.
Procedure: Painful diabetic neuropathy is one of the most common complications of insulin-dependent diabetes in man; in particular, diabetes can be associated with neuropathic pain which fails to be treated by classical analgesics. Streptozotocin (STZ)-induced diabetes in the rat has been increasingly used as a model of painful diabetic neuropathy to assess the efficacies of potential analgesic agents (C. Courteix, Pain 1993, 53, 81-8). The compounds of the invention were tested for efficacy in reducing mechanical hyperalgesia associated with STZ-induced diabetes in the rat, according to the experimental model as described by the literature. Diabetes was produced with the injection of a single dose (75 mg/Kg i.p.) of STZ. In the following four weeks after the induction of diabetes the clinical symptoms (weight, body and skin temperature, motility and hyperglycemia) progressively developed by the animals, are strictly monitored. After four weeks, the scores obtained in diabetic rats to various pain stimuli (in particular mechanical stimuli) were greater than those in normal rats, indicating hyperalgesia. The hyperalgesia induced by diabetes was evaluated using the Randall-Selitto method as above described, and quantitated using the analgesimeter. Also in this case, the difference in the mechanical pain threshold between the basal value (generally 230-250 g) and the one tolerated by the animals treated with the drug, is defined as mechanical hyperalgesia. The compounds of the invention were administered i.p. (solution, Tween 80, 10% in saline) at different doses, and mechanical hyperalgesia was measured at the reported time, as maximum percent effect (MPE) which represents the difference (%) in pain threshold between the animals treated with the drug and the controls that received only the vehicle, compared with the weight borne by naïf non-diabetic controls. A 100% protection means that the diabetic animals treated with the compound can tolerate the same stimulus (weight) as the naïf non-diabetic animals. MPE higher than 100% means that the diabetic animal treated with the compound can tolerate stimuli (weight) higher than the control non-diabetic animals (hypoalgesia).
In particular, from the MPE data at 0.5 hrs, the doses yielding a protection of 50% (ED50) and 100% (ED100) have been calculated.

[2] = tested on: Zymosan-induced mechanical hyperalgesia; assay: Zymosan-induced mechanical hyperalgesia (Randall-Selitto), inflammatory pain; type: in vivo, rat; settings: for ED50: Rattus norvegicus, read-out: Analgesia ED50
Procedure: (§1) The interplantar injection of Zymosan-induced mechanical hyperalgesia was used as a model of inflammatory pain (Meller, Neuropharmacology, 1994, 33, 1471-1478). In this model, typically a male Sprague-Dawley or Wistar rat (200-250 g) receives an interplantar injection of 3 mg/100 μl zymosan into one hind paw. A marked inflammation occurs in this hind paw. Drugs are administered orally for evaluation of efficacy, 30 min. before the inflammatory insult. The hyperalgesia induced by zymosan administration was evaluated using the Randall-Selitto method (Arch. Int. Pharmacodyn., 1957, 111, 409). The quantitation of the analgesic effect is achieved by an analgesimeter, which consist in applying to the inflamed paw an increasing weight (from 130-140 g up to 500 g). The difference in the mechanical pain threshold between the basal value (generally 230-250 g) and the one tolerated by the animals treated with the drug, determined 4 hours after the inflammatory challenge, is defined as mechanical hyperalgesia. Mechanical hyperalgesia is expressed for the compounds of the invention as ED50, which is the dose of the administered compound able to increase the pain threshold by 50% in comparison with the group of control animals. The corresponding ED100, representing the dose able of reducing of 100% the pain threshold, can be calculated for those cases where there is a linear dose-response relationship. In vivo anti-inflammatory effect exerted by the compound of the invention can be assessed in the same Zymosan induced inflammation test described above, by measuring the volume of the oedema induced by the inflammatory agent. The oedema was evaluated as the increase in the volume of the Zymosan injected paw within a time of 0-2 hrs. The measurements of the variation of the oedema volume of the paw were recorded using hydroplethysmometer, which consists of two plastic cuvettes containing a surfactant liquid, the larger one being used for immersion of the paw, connected to the smaller one which contains a transducer capable of recording small displacements of the volume used for the measure. The paw is immersed in the cuvettes up to the tibiotarsal joint. The volume of the liquid displaced is proportional to the extent of the inflammation. The efficacy of the compounds of the invention in preventing oedema formation is expressed as ED30, is measured 2 hours after the inflammatory challenge, and represents the dose able of reducing of 30%, the Zymosan induced paw volume increase in comparison to control animals (animals treated with Zymosan but treated with only distilled water instead of the testing compound). The corresponding ED50, representing the dose able of reducing of 50% the Zymosan induced paw volume increase, can be calculated for those cases where there is a linear dose-response relationship. In both the experiments, for each test compound, at least three doses were used, with 10 animals per group. Compounds of the invention were tested at 10, 20 and 40 mg/Kg.

[3] = tested on: Zymosan induced paw volume increase; assay: Zymosan-induced paw oedema; type: in vivo, rat; settings: oral, 2 hours after challenge
Procedure: as §1

COX-2 = COX-2 production in IL-1 stimulated human chondrosarcoma cell line; type: cell-based; settings: for inhibition at 0.3 µM / inhibition at 1 µM / inhibition at 10 µM: Homo sapiens
Description: (§2) The compounds of the invention have been found effective in interfering with COX-2 and cytokines production, in several cell lines; examples of these effects are reported in Table 3, for COX-2 and IL-1β and IL-6 cytokines, in IL-1 stimulated human chondrosarcoma cell line.

IL-1β = IL-1β production in IL-1 stimulated human chondrosarcoma cell line; type: cell-based
Description: as §2

[4] = tested on: CFA-induced prolonged inflammation; assay: CFA model of chronic inflammatory pain; type: in vivo, rat; settings: for ED50: Rattus norvegicus, ip; for ED50 / ED100 0.5 hrs: calculated from MPE data at 0.5 hrs; for ED100 0.5 hrs: i.p.
IL-6 = IL-6 production in IL-1 stimulated human chondrosarcoma cell line; type: cell-based
Description: as §2

[5] = even at the higher doses tested
Description: The performance of representative compounds of Formula (I), in the tests described above, is summarized for both the analgesic effect and the anti-inflammatory effect in Table 4, where the activity of the compounds of the invention is compared with the performance in the same test of well known standards.

[6] = oral, 30 min before zymosan, 4 hours after challenge
[7] = calculated from MPE data at 0.5 hrs

## CN(C)CCC=C1c2ccccc2CCc2ccccc21 [Amitriptyline, reference compound]
[1]; 3 mg/kg i.p.
  MPE 0.5 hrs.: 44%
  MPE 1.5 hrs.: 40%
  MPE 3 hrs.: 5%
[1]; 10 mg/kg i.p.
  MPE 0.5 hrs.: 68%
  MPE 1.5 hrs.: 77%
[1]; 30 mg/kg i.p.
  MPE 0.5 hrs.: 65%
  MPE 1.5 hrs.: 69%
  MPE 3 hrs.: 23%

## Cc1ccc(-c2cc(C(F)(F)F)nn2-c2ccc(S(N)(=O)=O)cc2)cc1 [Celecoxib]
[2]; [6]
  ED50: 9 mg/kg
  Analgesia ED100: 1172 mg/kg
[3]
  Oedema Reduction ED30: 13.8 mg/kg

## c1ccc(-c2ncc3cc(-n4ccnc4)ccc3n2)cc1 [Example 1, [2-phenyl-6-(1H-imidazol-1-yl)]quinazoline]
[2]; [6]
  ED50: 6.5 mg/kg
  Analgesia ED100: 10 mg/kg
COX-2
  inhibition at 0.3 µM: 20%
[3]; Rattus norvegicus, read-out: Oedema Reduction ED50
  ED50: 97 mg/kg
[3]
  Oedema Reduction ED30: 7.3 mg/kg
IL-1β
  inhibition at 0.3 µM: 10%
[4]; 3 mg/kg i.p.
  MPE 0.5 hrs.: 52%
  MPE 1.5 hrs.: 4%
[4]; 10 mg/kg i.p.
  MPE 0.5 hrs.: 67%
  MPE 1.5 hrs.: 63%
  MPE 3 hrs.: 29%
  MPE 6 hrs.: 22%
  MPE 24 hrs.: 5%
[4]; 30 mg/kg i.p.
  MPE 0.5 hrs.: 367%
  MPE 1.5 hrs.: 368%
  MPE 3 hrs.: 321%
  MPE 6 hrs.: 239%
  MPE 24 hrs.: 60%
[4]
  ED50: 5.5 mg/kg
  ED100 0.5 hrs: 9.6 mg/kg
IL-6
  inhibition at 0.3 µM: 35%
[1]; 3 mg/kg i.p.
  MPE 0.5 hrs.: 24%
[1]; 10 mg/kg i.p.
  MPE 0.5 hrs.: 41%
  MPE 1.5 hrs.: 68%
[1]; 30 mg/kg i.p.
  MPE 0.5 hrs.: 236%
  MPE 1.5 hrs.: 225%
  MPE 3 hrs.: 171%
  MPE 6 hrs.: 34%
[1]; [7]
  ED50: 5.5 mg/kg
  ED100 0.5 hrs: 9.6 mg/kg

## c1cn(-c2ccc3nc(-c4ccc5c(c4)OCO5)ncc3c2)cn1 [Example 3, [2-(1,3-benzodioxol-5-yl)-6-(1H-imidazol-1-yl)]quinazoline]
[2]; [6]
  ED50: 2.8 mg/kg
  Analgesia ED100: 5 mg/kg
COX-2
  inhibition at 0.3 µM: 35%
  inhibition at 1 µM: 64%
  inhibition at 10 µM: 75%
COX-2; IL-1 stimulated human chondrosarcoma cell line, read-out: IC50 (inhibition of COX-2 production)
  pIC50: 6.20
[3]
  Oedema Reduction ED30: 172 mg/kg
IL-1β
  inhibition at 0.3 µM: 20%
  inhibition at 1 µM: 15%
  inhibition at 10 µM: 40%
[4]; 3 mg/kg i.p.
  MPE 0.5 hrs.: 54%
  MPE 1.5 hrs.: 90%
  MPE 3 hrs.: 32%
  MPE 6 hrs.: 5%
[4]; 10 mg/kg i.p.
  MPE 0.5 hrs.: 216%
  MPE 1.5 hrs.: 188%
  MPE 3 hrs.: 85%
  MPE 6 hrs.: 23%
  MPE 24 hrs.: 3%
[4]; 30 mg/kg i.p.
  MPE 0.5 hrs.: 344%
  MPE 1.5 hrs.: 198%
  MPE 3 hrs.: 101%
  MPE 6 hrs.: 49%
  MPE 24 hrs.: 41%
[4]
  ED50: 2.7 mg/kg
  ED100 0.5 hrs: 4.7 mg/kg
IL-6
  inhibition at 0.3 µM: 20%
IL-6; 1 μM
  inhibition at 1 µM: 35%
[1]; 3 mg/kg i.p.
  MPE 0.5 hrs.: 73%
  MPE 1.5 hrs.: 88%
  MPE 3 hrs.: 50%
  MPE 6 hrs.: 24%
[1]; 10 mg/kg i.p.
  MPE 0.5 hrs.: 141%
  MPE 1.5 hrs.: 143%
  MPE 3 hrs.: 98%
  MPE 6 hrs.: 49%
[1]; 30 mg/kg i.p.
  MPE 0.5 hrs.: 283%
  MPE 1.5 hrs.: 273%
  MPE 3 hrs.: 263%
  MPE 6 hrs.: 264%
[1]; [7]
  ED50: 2.9 mg/kg
  ED100 0.5 hrs: 5.3 mg/kg

## c1cn(-c2ccc3nc(-c4ccc5c(c4)OCCO5)ncc3c2)cn1 [Example 5]
COX-2
  inhibition at 0.3 µM: 50%
  inhibition at 1 µM: 60%
  inhibition at 10 µM: 70%
IL-1β
  inhibition at 0.3 µM: 20%
  inhibition at 1 µM: 30%
  inhibition at 10 µM: 40%
IL-6; 10 μM
  inhibition at 10 µM: 35%

## CS(=O)(=O)Nc1ccc([N+](=O)[O-])cc1Oc1ccccc1 [Nimesulide]
[2]; [6]
  ED50: 7.4 mg/kg
  Analgesia ED100: 161 mg/kg
[3]
  Oedema Reduction ED30: 0.5 mg/kg
[5]
  ulcerative side effects: ulcerative side effects

## CN1C(C(=O)Nc2ccccn2)=C(O)c2ccccc2S1(=O)=O [Piroxicam, reference compound]
[4]; 30 mg/kg i.p.
  MPE 0.5 hrs.: 102%
  MPE 1.5 hrs.: 111%
  MPE 3 hrs.: 54%
  MPE 6 hrs.: 24%
  MPE 24 hrs.: 38%

## COc1cccc(C2(O)CCCCC2CN(C)C)c1 (stereo not shown) [Tramadol, reference compound]
[2]
  ED50: 25.7 mg/kg
[2]; [6]
  Analgesia ED100: 405 mg/kg
[1]; 3 mg/kg i.p.
  MPE 0.5 hrs.: 26%
  MPE 1.5 hrs.: 53%
  MPE 3 hrs.: 7%
[1]; 10 mg/kg i.p.
  MPE 0.5 hrs.: 58%
  MPE 1.5 hrs.: 48%
  MPE 3 hrs.: 27%
[1]; 30 mg/kg i.p.
  MPE 0.5 hrs.: 54%
  MPE 1.5 hrs.: 64%
  MPE 3 hrs.: 23%
[1]; 50 mg/kg i.p.
  MPE 0.5 hrs.: 81%
  MPE 1.5 hrs.: 60%
  MPE 3 hrs.: 43%
[1]; 0.5 h
  ED50: 10.9 mg/kg
[1]; extrapolated from a dose-response curve approaching the 100% protection
  ED100 0.5 hrs: 251 mg/kg

From patent US8193353B2, “6-1H-imidazo-quinazoline and quinolines derivatives, new potent analgesics and anti-inflammatory agents” (Rottapharm S.p.A, priority 2006, dated 2012)
